Earlier results, collected in article PMC3779694 (Hepatology (Baltimore, Md.), 2011).

Tested on: subjects with a variety of chronic liver diseases, mostly chronic hepatitis C
Details: five subjects with NASH, 14-day regimen; cited from earlier work

In the case of `C[C@H](NC(=O)C(=O)Nc1ccccc1C(C)(C)C)C(=O)N[C@@H](CC(=O)O)C(=O)COc1c(F)c(F)cc(F)c1F` [IDN-6556], the “ALT reduction in subjects with NASH” value is given as 59%.
